Experimental data from article PMC9623576, “Semisynthesis and Evaluation of Anti-Inflammatory Activity of the Cassane-Type Diterpenoid Taepeenin F and of Some Synthetic Intermediates” (Journal of Natural Products, 2022).

Columns and labels:
[1] = tested on: B16-F10 murine melanoma cells; assay: MTT cancer cell proliferation assay, B16-F10; assay type: cell-based; conditions: Mus musculus, B16-F10, 72 h, MTT; for IC50: read-out: IC50; for IC20: read-out: IC20
Description: The five newly synthesized diterpenoids were evaluated for their cytotoxic effects against three selected tumor cell lines, B16-F10 murine melanoma cells, HT29 human colon adenocarcinoma cells, and HepG2 human hepatocarcinoma cells at increasing concentrations (0–100 μg/mL). After 72 h of treatment, cell viability was determined by an MTT assay, where the tetrazolium dye was transformed into formazan in the mitochondria of viable cells, its absorbance measured at 570 nm and expressed as a percentage with respect to untreated control cells (S3 Figure.). The concentrations required for 20, 50, and for 80% growth inhibition (IC20, IC50, and IC80) were also determined for each compound (Table 2).
A stock solution was frozen and stored at […]. Before the experiments, this solution was diluted in cell-culture medium to the adequate concentrations for each experiment. […] For nitrite assay, subcytotoxic concentrations (3/4IC50, 1/2IC50, and 1/4IC50), were used to ensure that the NO inhibitory potential was not due to a possible cytotoxic effect. The concentrations of 3/4IC50, 1/2IC50, and 1/4IC50 were used for the cell-cycle analysis. All experiments were measured and compared with control (untreated cells after 24, 48, or 72 h of treatment.)
Human colorectal adenocarcinoma cell line HT29 (ECACC no. 9172201; ATCC no. HTB-38), human hepatocarcinome cell line HepG2 (ECACC no. 85011430), mouse melanoma cells B16-F10 (ATCC no. CRL-6475), and murine monocyte/macrophage-like RAW 264.7 cell line (ATCC no, TIB-71) were cultured in DMEM (Dulbecco’s modified Eagle’s medium) supplemented with 2 mM glutamine, 10% heat-inactivated FCS (fetal calf serum), 10 000 units/mL of penicillin and 10 mg/mL of streptomycin, (for all cancer cell lines), 50 μg/mL of gentamicin (only for RAW 264.7 cell line), and incubated at 37 °C, in an atmosphere of 5% CO2 and 95% humidity. The culture media were changed every 48 h, and the confluent cultures were separated with a trypsin solution (0.25% EDTA). In all experiments, monolayer cells were grown to 80–90% confluence, in sterile cell culture flasks. All cell lines used were purchased from the cell bank of the University of Granada, Spain.
The cytotoxicity assay was performed by the MTT (3-(4,5-dimethylthiazol-2-yl)-2,5-diphenyltetrazolium bromide) method.[21] To quantify the cytotoxicity of compounds, the fresh and suspended cells were seeded in 96-well plates to a volume of 100 μL at 6.0 × 10^3 cells/mL for HT29 and RAW 264.7 cell lines, at 5.0 × 10^3 cells/mL for B16-F10 cells and 15.0 × 10^3 for Hep G2. Then, cells were incubated to adhere over 24 h at 37 °C with 5% CO2. All tested compounds were prepared in fresh growth medium. After 24 h, an additional 100 μL of medium with the corresponding concentrations of products (only medium in the control wells) was added to the corresponding wells, at various final concentrations (0–100 μg/mL). Finally, after 72 h of incubation at 37 °C with 5% CO2, the medium with the compounds were removed and 100 μL of MTT solution (0.5 mg/mL) in 50% of PBS 50% of medium was added to each well. After 1.5 h of incubation, formazan was resuspended in 100 μL of DMSO, and each concentration was tested in triplicate. Relative cell viability, with respect to untreated control cells, was measured by absorbance at 570 nm on an ELISA plate reader (Tecan Sunrise MR20-301, TECAN, Austria).
Cytotoxicity experimental data were fitted to a sigmoidal function (y = ymax/(x/a)^−b) by nonlinear regression. […] These analyses were performed using SigmaPlot 12.5 software. Similar analyses were performed to obtain the IC50 of NO production. All data shown here are representative of at least two independent experiments performed in triplicate. All quantitative data were summarized as the mean ± standard deviation (SD).

B16-F10 cells = assay: B16-F10 cell-cycle arrest and distribution, PI flow cytometry; assay type: cell-based, murine; conditions: B16-F10, 72 h
Description: The effects of the compounds 16 and 21 on the B16-F10 cell cycle were investigated using flow cytometry through propidium iodide staining. With this assay, we can determine a possible cytostatic effect related to the cytotoxic response and also measure DNA ploidy as well as alterations of cell-cycle profiles.[32]
The method used to quantify the amount of DNA in the different phases of the cell cycle (G0/G1, S, and G2/M) was performed by flow cytometry after propidium iodide staining (PI).[37] […] After treatment, the cells were washed twice with PBS, trypsinized, and resuspended in 1× TBS (10 mM Tris and 150 mM NaCl). After that, Vindelov buffer (100 mM Tris, 100 mM NaCl, 10 mg/mL Rnase, and 1 mg/mL PI, at pH 8) was added. Cells were stored on ice and, just before measurement, were stained with 20 μL of 1 mg/mL PI solution. Approximately, 10 × 10^3 cells were analyzed in each experiment. The experiments were performed three times with two replicates per assay. Finally, samples were analyzed using a flow cytometer, and the number of cells in each stage of the cell cycle was estimated by fluorescence-associated cell sorting (FACS) at 488 nm in an Epics XL flow cytometer (Coulter Corporation, Hialeah, FL, USA).

Structure (SMILES)	IC50 [1] [µM]	IC80 [1] [µM]	IC20 [1] [µM]	cells in the G0/G1 phase (B16-F10 cells; IC80 concentration) [%]	cells in the S phase (B16-F10 cells; IC80 concentration) [%]	decrease of S phase cells compared to untreated control cells (B16-F10 cells; IC80 concentration) [%]	increase of G0/G1 cells over untreated control cells (B16-F10 cells; IC80 concentration) [%]	cells in the G0/G1 phase (B16-F10 cells; IC50 concentration) [%]	cells in the S phase (B16-F10 cells; IC50 concentration) [%]	decrease of S phase cells compared to untreated control cells (B16-F10 cells; IC50 concentration) [%]	increase of G0/G1 cells over untreated control cells (B16-F10 cells; IC50 concentration) [%]
COC(=O)[C@]1(C)CCC[C@@]2(C)[C@H]1CC=C1C(C)=C(C(C)C)C(=O)C[C@@H]12 [Compound 16, (1R,4aR,10aR)-Methyl 7-isopropyl-1,4a,8-trimethyl-6-oxo-1,2,3,4,4a,4b,5,6,10,10a-decahydrophenanthrene-1-carboxylate]	22.2 ± 1.16	35.8 ± 3.35	14.2 ± 0.19	76.36	22.42	16.79	18.24				
COC(=O)[C@]1(C)CCC[C@]2(C)c3cc(O)c(C=O)c(C)c3CC[C@@H]12 [Compound 21, (1R,4aS,10aR)-Methyl 7-formyl-6-hydroxy-1,4a,8-trimethyl-1,2,3,4,4a,9,10,10a-octahydrophenanthrene-1-carboxylate]	7.72 ± 3.92	20.1 ± 7.72	3.18 ± 2.3	70.55	29.45	9.76	12.43	71.87	27.95	11.26	13.75
